Type in all cases: functional
The subject of test [1] is Staphylococcus aureus. Description: Antibacterial activity against Staphylococcus aureus ATCC 25923 after overnight incubation by […] method.
Another test concerns Candida albicans. Description: Antifungal activity against Candida albicans ATCC 76615 after overnight incubation by […] method.
The next test concerns Bacillus. Description: Antibacterial activity against Bacillus proteus after overnight incubation by […] method. A general note: Agar diffusion results depend on both activity and mobility in agar.
In another test the test system is Candida. Description: Antifungal activity against Candida mycoderma after overnight incubation by […] method.
In another test the test system is Pseudomonas aeruginosa. Description: Antibacterial activity against Pseudomonas aeruginosa CR 56 after overnight incubation by […] method.
The test system of a further test is Aspergillus flavus. Description: Antifungal activity against Aspergillus flavus 3905 after overnight incubation by […] method.
The subject of a further test is Bacillus subtilis. Description: Antibacterial activity against Bacillus subtilis ATCC 6633 after overnight incubation by […] method.
Another test concerns Cryptococcus neoformans. Description: Antifungal activity against Cryptococcus neoformans after overnight incubation by […] method.
For test [2], the system named is Staphylococcus aureus. Kind of test: Antibacterial activity against methicillin-resistant Staphylococcus aureus N315 after overnight incubation by […] method.
The subject of another test is Escherichia coli. Kind of test: Antibacterial activity against Escherichia coli JM 109 after overnight incubation by […] method.
The subject of the next test is Saccharomyces cerevisiae. Description: Antifungal activity against Saccharomyces cerevisiae CGMCC2.145 after overnight incubation by […] method.

Consider 16 compounds from ChEMBL document CHEMBL2424658, “Design, synthesis, and evaluation of novel 1-methyl-3-substituted quinazoline-2,4-dione derivatives as antimicrobial agents” (2013).

The term MIC denotes the lowest concentration found to suppress growth. A high value points to weaker potency.

Molecules are shown by their SMILES. ≈ marks a conversion by molar mass, not a printed value. Bounds are passed on as bounds.

In the case of `Cn1c(=O)n(CCOC(=O)CNC(=O)c2cccc(F)c2)c(=O)c2ccccc21`, the MIC against Staphylococcus aureus [1] worked out at 128 µg/mL (≈ 320 µM); with Candida albicans, 16 µg/mL (≈ 40.1 µM); in the test with Bacillus, 512 µg/mL (≈ 1280 µM); with Candida, 512 µg/mL (≈ 1280 µM); in the test with Pseudomonas aeruginosa it was 128 µg/mL (≈ 320 µM); in the test on Aspergillus flavus, 64 µg/mL (≈ 160 µM). For the same compound, the MIC is 256 µg/mL (≈ 641 µM) in the test with Bacillus subtilis, 256 µg/mL (≈ 641 µM) in the test with Cryptococcus neoformans, 32 µg/mL (≈ 80.1 µM) in the test on Staphylococcus aureus [2] and 128 µg/mL (≈ 320 µM) in the test with Escherichia coli.
On to `Cn1c(=O)n(CCOC(=O)CNC(=O)c2ccc(F)cc2)c(=O)c2ccccc21`, for which the MIC against Staphylococcus aureus [1] was determined as 256 µg/mL (≈ 641 µM); in the test with Candida albicans it was 32 µg/mL (≈ 80.1 µM); against Bacillus it was 512 µg/mL (≈ 1280 µM); against Candida, 64 µg/mL (≈ 160 µM); against Pseudomonas aeruginosa it was 256 µg/mL (≈ 641 µM); in the test with Aspergillus flavus, 64 µg/mL (≈ 160 µM). For the same compound, the MIC in the test with Bacillus subtilis came to 128 µg/mL (≈ 320 µM); in the test on Cryptococcus neoformans, 16 µg/mL (≈ 40.1 µM); against Staphylococcus aureus [2], 4 µg/mL (≈ 10 µM); with Escherichia coli, 64 µg/mL (≈ 160 µM).
With `Cn1c(=O)n(CCOC(=O)CNC(=O)c2ccccc2Cl)c(=O)c2ccccc21`, the MIC amounted to 512 µg/mL (≈ 1230 µM) with Staphylococcus aureus [1]; 32 µg/mL (≈ 77 µM) against Candida albicans; 128 µg/mL (≈ 308 µM) in the test on Bacillus; 64 µg/mL (≈ 154 µM) in the test with Candida; 128 µg/mL (≈ 308 µM) in the test with Pseudomonas aeruginosa; 128 µg/mL (≈ 308 µM) in the test with Aspergillus flavus. Besides, the MIC in the test on Bacillus subtilis is 64 µg/mL (≈ 154 µM); in the test with Cryptococcus neoformans, 128 µg/mL (≈ 308 µM); against Staphylococcus aureus [2], above 512 µg/mL; with Escherichia coli, 512 µg/mL (≈ 1230 µM).
Regarding `Cc1ccccc1C(=O)NCC(=O)OCCn1c(=O)c2ccccc2n(C)c1=O`, the MIC was 512 µg/mL (≈ 1290 µM) with Staphylococcus aureus [1]; 512 µg/mL (≈ 1290 µM) with Candida albicans; 32 µg/mL (≈ 80.9 µM) in the test with Bacillus; 512 µg/mL (≈ 1290 µM) against Candida; 256 µg/mL (≈ 647 µM) with Pseudomonas aeruginosa; 128 µg/mL (≈ 324 µM) with Aspergillus flavus. In addition, the MIC against Bacillus subtilis stood at 64 µg/mL (≈ 162 µM); with Cryptococcus neoformans, 16 µg/mL (≈ 40.5 µM); in the test on Staphylococcus aureus [2], 32 µg/mL (≈ 80.9 µM); against Escherichia coli it was 32 µg/mL (≈ 80.9 µM).
Take `Cn1c(=O)n(CCOC(=O)CNC(=O)c2ccc([N+](=O)[O-])cc2)c(=O)c2ccccc21`: the MIC is 256 µg/mL (≈ 600 µM) against Staphylococcus aureus [1]; 512 µg/mL (≈ 1200 µM) against Candida albicans; 128 µg/mL (≈ 300 µM) against Bacillus; 64 µg/mL (≈ 150 µM) in the test on Candida; 64 µg/mL (≈ 150 µM) against Pseudomonas aeruginosa; 512 µg/mL (≈ 1200 µM) against Bacillus subtilis. Moreover, the MIC turned out to be 8 µg/mL (≈ 18.8 µM) in the test on Staphylococcus aureus [2] and 128 µg/mL (≈ 300 µM) with Escherichia coli.
Turning to `COc1ccc(C(=O)NCC(=O)OCCn2c(=O)c3ccccc3n(C)c2=O)cc1`, the MIC with Staphylococcus aureus [1] turned out to be 512 µg/mL (≈ 1240 µM); in the test on Candida albicans it was 32 µg/mL (≈ 77.8 µM); against Bacillus, 512 µg/mL (≈ 1240 µM); in the test with Candida, 512 µg/mL (≈ 1240 µM); against Pseudomonas aeruginosa, 128 µg/mL (≈ 311 µM); against Aspergillus flavus it was 128 µg/mL (≈ 311 µM). Besides, the MIC against Bacillus subtilis stood at 4 µg/mL (≈ 9.72 µM); in the test with Cryptococcus neoformans, 32 µg/mL (≈ 77.8 µM); against Staphylococcus aureus [2], 256 µg/mL (≈ 622 µM); in the test on Escherichia coli, 512 µg/mL (≈ 1240 µM).
With `Cc1ccc(C(=O)NCC(=O)OCCn2c(=O)c3ccccc3n(C)c2=O)cc1`, the MIC in the test on Staphylococcus aureus [1] was found to be 512 µg/mL (≈ 1290 µM); against Candida albicans it was 32 µg/mL (≈ 80.9 µM); against Bacillus it was 32 µg/mL (≈ 80.9 µM); with Candida, 512 µg/mL (≈ 1290 µM); against Pseudomonas aeruginosa, 128 µg/mL (≈ 324 µM); against Aspergillus flavus, 64 µg/mL (≈ 162 µM). For the same compound, the MIC with Bacillus subtilis came to 64 µg/mL (≈ 162 µM); against Cryptococcus neoformans, 16 µg/mL (≈ 40.5 µM); in the test on Staphylococcus aureus [2] it was 512 µg/mL (≈ 1290 µM); against Escherichia coli it was 512 µg/mL (≈ 1290 µM).
With `Cn1c(=O)n(CCOC(=O)CNC(=O)c2cccc([N+](=O)[O-])c2)c(=O)c2ccccc21`, the MIC amounted to 128 µg/mL (≈ 300 µM) in the test with Staphylococcus aureus [1]; 64 µg/mL (≈ 150 µM) against Candida albicans; 128 µg/mL (≈ 300 µM) against Bacillus; 16 µg/mL (≈ 37.5 µM) in the test on Candida; 512 µg/mL (≈ 1200 µM) in the test with Pseudomonas aeruginosa; 64 µg/mL (≈ 150 µM) in the test with Aspergillus flavus. In addition, the MIC came to 256 µg/mL (≈ 600 µM) in the test with Bacillus subtilis, 128 µg/mL (≈ 300 µM) against Cryptococcus neoformans, 4 µg/mL (≈ 9.38 µM) in the test with Staphylococcus aureus [2] and 16 µg/mL (≈ 37.5 µM) against Escherichia coli.
In the case of `Cn1c(=O)n(CCOC(=O)CNC(=O)c2ccc(Cl)cc2)c(=O)c2ccccc21`, the MIC with Staphylococcus aureus [1] was 128 µg/mL (≈ 308 µM); against Candida albicans it was 64 µg/mL (≈ 154 µM); with Bacillus it was 256 µg/mL (≈ 616 µM); in the test on Candida, 512 µg/mL (≈ 1230 µM); against Pseudomonas aeruginosa, 256 µg/mL (≈ 616 µM); in the test with Aspergillus flavus it was 32 µg/mL (≈ 77 µM). Moreover, the MIC in the test on Bacillus subtilis came to 128 µg/mL (≈ 308 µM); against Cryptococcus neoformans, 32 µg/mL (≈ 77 µM); in the test on Staphylococcus aureus [2] it was 512 µg/mL (≈ 1230 µM); with Escherichia coli it was 256 µg/mL (≈ 616 µM).
With `Cn1c(=O)n(CCOC(=O)CNC(=O)c2ccco2)c(=O)c2ccccc21`, the MIC in the test with Staphylococcus aureus [1] turned out to be 256 µg/mL (≈ 689 µM); in the test with Candida albicans, 32 µg/mL (≈ 86.2 µM); with Bacillus it was 128 µg/mL (≈ 345 µM); against Candida, 64 µg/mL (≈ 172 µM); in the test with Pseudomonas aeruginosa, 128 µg/mL (≈ 345 µM); in the test with Aspergillus flavus, 64 µg/mL (≈ 172 µM). Further, the MIC was 4 µg/mL (≈ 10.8 µM) against Bacillus subtilis, 128 µg/mL (≈ 345 µM) against Cryptococcus neoformans, above 512 µg/mL with Staphylococcus aureus [2] and 4 µg/mL (≈ 10.8 µM) against Escherichia coli.
For `Cn1c(=O)n(CCOC(=O)CNC(=O)c2cccs2)c(=O)c2ccccc21`, the MIC in the test with Staphylococcus aureus [1] worked out at 512 µg/mL (≈ 1320 µM); in the test with Candida albicans, 512 µg/mL (≈ 1320 µM); with Bacillus, 64 µg/mL (≈ 165 µM); in the test on Candida it was 512 µg/mL (≈ 1320 µM); against Pseudomonas aeruginosa, 64 µg/mL (≈ 165 µM); against Aspergillus flavus it was 64 µg/mL (≈ 165 µM). Further, the MIC against Bacillus subtilis was 32 µg/mL (≈ 82.6 µM); against Cryptococcus neoformans, 256 µg/mL (≈ 661 µM); in the test with Staphylococcus aureus [2], 32 µg/mL (≈ 82.6 µM); in the test with Escherichia coli it was 64 µg/mL (≈ 165 µM).
Regarding `Cn1c(=O)n(CCOC(=O)CNC(=O)/C=C\c2ccccc2)c(=O)c2ccccc21`, the MIC in the test with Staphylococcus aureus [1] was 128 µg/mL (≈ 314 µM); in the test on Candida albicans, 512 µg/mL (≈ 1260 µM); with Bacillus it was 256 µg/mL (≈ 628 µM); in the test with Candida it was 512 µg/mL (≈ 1260 µM); in the test on Pseudomonas aeruginosa, above 512 µg/mL; against Aspergillus flavus it was 32 µg/mL (≈ 78.5 µM). The MIC is 4 µg/mL (≈ 9.82 µM) in the test on Bacillus subtilis, 8 µg/mL (≈ 19.6 µM) against Cryptococcus neoformans, 4 µg/mL (≈ 9.82 µM) in the test with Staphylococcus aureus [2] and 16 µg/mL (≈ 39.3 µM) against Escherichia coli.
Consider `NC(=O)OC[C@H](O)[C@@H](O)[C@H](N)C(=O)N[C@H](C(=O)O)[C@H]1O[C@@H](n2cc(C(=O)O)c(=O)[nH]c2=O)[C@H](O)[C@@H]1O`, for which the MIC worked out at 32 µg/mL (≈ 61.4 µM) against Candida albicans; 8 µg/mL (≈ 15.3 µM) in the test with Candida; 16 µg/mL (≈ 30.7 µM) in the test with Saccharomyces cerevisiae; 32 µg/mL (≈ 61.4 µM) in the test with Aspergillus flavus; 0.0312 µg/mL (≈ 0.0599 µM) in the test on Cryptococcus neoformans.
As to `Cn1c(=O)n(CCOC(=O)CNC(=O)c2ccccc2)c(=O)c2ccccc21`, the MIC with Staphylococcus aureus [1] is 256 µg/mL (≈ 671 µM); against Candida albicans it was 512 µg/mL (≈ 1340 µM); with Bacillus, above 512 µg/mL; against Candida, above 512 µg/mL; against Pseudomonas aeruginosa it was above 512 µg/mL; in the test with Aspergillus flavus, 64 µg/mL (≈ 168 µM). For the same compound, the MIC in the test on Bacillus subtilis was 512 µg/mL (≈ 1340 µM); against Cryptococcus neoformans, 32 µg/mL (≈ 83.9 µM); against Staphylococcus aureus [2], above 512 µg/mL; in the test with Escherichia coli it was 128 µg/mL (≈ 336 µM).
Turning to `OC(Cn1cncn1)(Cn1cncn1)c1ccc(F)cc1F` [FLUCONAZOLE], the MIC in the test with Candida albicans is 16 µg/mL (≈ 52.2 µM); against Candida, 8 µg/mL (≈ 26.1 µM); against Saccharomyces cerevisiae, above 512 µg/mL; in the test on Aspergillus flavus it was 64 µg/mL (≈ 209 µM); against Cryptococcus neoformans it was 0.0312 µg/mL (≈ 0.102 µM).
Consider `CN[C@@H]1[C@H](O[C@H]2[C@H](O[C@H]3[C@H](O)[C@@H](O)[C@H](N=C(N)N)[C@@H](O)[C@@H]3N=C(N)N)O[C@@H](C)[C@]2(O)C=O)O[C@@H](CO)[C@H](O)[C@H]1O` [STREPTOMYCIN], for which the MIC against Staphylococcus aureus [1] was 32 µg/mL (≈ 55 µM); in the test with Bacillus it was 16 µg/mL (≈ 27.5 µM); in the test with Pseudomonas aeruginosa it was 64 µg/mL (≈ 110 µM); against Bacillus subtilis, 32 µg/mL (≈ 55 µM); with Staphylococcus aureus [2], above 512 µg/mL; in the test with Escherichia coli, 64 µg/mL (≈ 110 µM).
